Columns and labels:
Assay type in all cases: in vivo
[1] = test system: Surinam grass (Brachiaria decumbens); assay: Test B pre/postemergence
Source text: (§1) Seeds selected from barnyardgrass (Echinochloa crus-galli), Surinam grass (Brachiaria decumbens), cocklebur (Xanthium strumarium), corn (Zea mays), crabgrass (Digitaria sanguinalis), giant foxtail (Setaria faberii), lambsquarters (Chenopodium album), morningglory (Ipomoea coccinea), pigweed (Amaranthus retroflexus), velvetleaf (Abutilon theophrasti), and wheat (Triticum aestivum) were planted and treated preemergence with test chemicals formulated in a non-phytotoxic solvent mixture which included a surfactant.
(§2) At the same time, plants selected from these crop and weed species and also blackgrass (Alopecurus myosuroides) and wild oat (Avena fatua) were treated with postemergence applications of test chemicals formulated in the same manner. Plants ranged in height from 2 to 18 cm (1- to 4-leaf stage) for postemergence treatments. Plant species in the flooded paddy test consisted of rice (Oryza sativa), umbrella sedge (Cyperus difformis), duck salad (Heteranthera limosa) and barnyardgrass (Echinochloa crus-galli) grown to the 2-leaf stage for testing. Treated plants and controls were maintained in a greenhouse for 13 to 15 days, after which time all species were compared to controls and visually evaluated. Plant response ratings, summarized in Table B, are based on a scale of 0 to 100 where 0 is no effect and 100 is complete control. A dash (-) response means no test result.

[2] = test system: barnyardgrass (Echinochloa crus-galli); assay: Test B pre/postemergence
Source text: as §1, §2

[3] = test system: cocklebur (Xanthium strumarium); assay: Test B pre/postemergence
Source text: as §1, §2

[4] = test system: corn (Zea mays); assay: Test B pre/postemergence
Source text: as §1, §2

[5] = test system: crabgrass (Digitaria sanguinalis); assay: Test B pre/postemergence
Source text: as §1, §2

[6] = test system: giant foxtail (Setaria faberii); assay: Test B pre/postemergence
Source text: as §1, §2

[7] = test system: lambsquarters (Chenopodium album); assay: Test B pre/postemergence
Source text: as §1, §2

[8] = test system: morningglory (Ipomoea coccinea); assay: Test B pre/postemergence
Source text: as §1, §2

[9] = test system: pigweed (Amaranthus retroflexus); assay: Test B pre/postemergence
Source text: as §1, §2

[10] = test system: velvetleaf (Abutilon theophrasti); assay: Test B pre/postemergence
Source text: as §1, §2

[11] = test system: wheat (Triticum aestivum); assay: Test B pre/postemergence
Source text: as §1, §2

[12] = test system: blackgrass (Alopecurus myosuroides); assay: Test B postemergence; settings: for Blackgrass plant response rating: 125 g ai/ha, scale 0 to 100 (0 no effect, 100 complete control); for Plant response rating, Blackgrass: 500 g ai/ha, scale 0 to 100
How it was run: (§3)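 Compounds in non-phytotoxic solvent with surfactant applied preemergence to planted seeds or postemergence to plants 2 to 18 cm tall (1- to 4-leaf stage). Greenhouse 13 to 15 days, then visual rating against controls on a 0 to 100 scale (100 = complete control).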

[13] = test system: wild oat (Avena fatua); assay: Test B postemergence; settings: for Oat, Wild plant response rating: 125 g ai/ha, scale 0 to 100 (0 no effect, 100 complete control); for Plant response rating, Oat, Wild: 500 g ai/ha, scale 0 to 100
How it was run: as §3

[14] = test system: barnyardgrass (Echinochloa crus-galli); assay: Test B flooded paddy test; settings: Flood, 1000 g ai/ha; scale 0 (no effect) to 100 (complete control)
Protocol: as §2

[15] = test system: duck salad (Heteranthera limosa); assay: Test B flooded paddy test; settings: Flood, 1000 g ai/ha; scale 0 to 100
Protocol: as §2

[16] = test system: rice (Oryza sativa); assay: Test B flooded paddy test; settings: Flood, 1000 g ai/ha; scale 0 to 100
Protocol: as §2

[17] = test system: umbrella sedge (Cyperus difformis); assay: Test B flooded paddy test; settings: Flood, 1000 g ai/ha; scale 0 to 100
Protocol: as §2

[18] = Postemergence, 125 g ai/ha, scale 0 to 100 (0 no effect, 100 complete control)
[19] = Postemergence, 500 g ai/ha, scale 0 to 100
[20] = Preemergence, 500 g ai/ha, scale 0 to 100 (0 no effect, 100 complete control)
[21] = Preemergence, 125 g ai/ha, scale 0 to 100 (0 no effect, 100 complete control)

CCOC(=O)Cc1nc(-c2ccc(Cl)cc2)nc(N)c1Br [Compound 41]
50: Velvetleaf plant response rating [10, 18]
70: Plant response rating, Barnyardgrass [2, 19] | Cocklebur plant response rating [3, 18] | Morningglory plant response rating [8, 18] | Pigweed plant response rating [9, 18] | Plant response rating, Velvetleaf [10, 19]
60: Lambsquarters plant response rating [7, 20] | Pigweed plant response rating [9, 20] | Plant response rating, Blackgrass [12]
90: Plant response rating, Lambsquarters [7, 19] | Plant response rating, Morningglory [8, 19] | Plant response rating, Pigweed [9, 19] | Plant response rating, Ducksalad [15]
0: Surinam Grass plant response rating [1, 18] | Surinam Grass plant response rating [1, 20] | Plant response rating, Barnyardgrass [2, 21] | Plant response rating, Cocklebur [3, 21] | Plant response rating, Corn [4, 21] | Corn plant response rating [4, 20] | Plant response rating, Crabgrass [5, 21] | Plant response rating, Foxtail, Giant [6, 21] | Foxtail, Giant plant response rating [6, 20] | Plant response rating, Morningglory [8, 21] | Plant response rating, Pigweed [9, 21] | Plant response rating, Wheat [11, 21] | Oat, Wild plant response rating [13] | Plant response rating, Oat, Wild [13] | Plant response rating, Barnyardgrass [14] | Plant response rating, Rice [16]
40: Plant response rating, Wheat [11, 19]
10: Plant response rating, Surinam Grass [1, 19] | Barnyardgrass plant response rating [2, 20] | Cocklebur plant response rating [3, 20] | Crabgrass plant response rating [5, 18] | Plant response rating, Velvetleaf [10, 21]
20: Barnyardgrass plant response rating [2, 18] | Corn plant response rating [4, 18] | Plant response rating, Crabgrass [5, 19] | Crabgrass plant response rating [5, 20] | Foxtail, Giant plant response rating [6, 18] | Morningglory plant response rating [8, 20] | Plant response rating, Wheat [11, 20] | Blackgrass plant response rating [12]
30: Plant response rating, Foxtail, Giant [6, 19] | Plant response rating, Lambsquarters [7, 21] | Velvetleaf plant response rating [10, 20] | Wheat plant response rating [11, 18]
80: Plant response rating, Corn [4, 19] | Lambsquarters plant response rating [7, 18] | Plant response rating, Sedge, Umbrella [17]

CCOC(=O)C(C)c1nc(C2CC2)nc(N)c1Br (stereo not shown) [Compound 32]
70: Plant response rating, Barnyardgrass [2, 19] | Lambsquarters plant response rating [7, 18]
80: Plant response rating, Cocklebur [3, 21] | Plant response rating, Lambsquarters [7, 19] | Morningglory plant response rating [8, 20] | Pigweed plant response rating [9, 18] | Plant response rating, Pigweed [9, 19] | Velvetleaf plant response rating [10, 20]
90: Plant response rating, Cocklebur [3, 19] | Cocklebur plant response rating [3, 20] | Lambsquarters plant response rating [7, 20] | Plant response rating, Morningglory [8, 19] | Pigweed plant response rating [9, 20]
20: Barnyardgrass plant response rating [2, 18] | Plant response rating, Crabgrass [5, 19] | Plant response rating, Foxtail, Giant [6, 19] | Wheat plant response rating [11, 18] | Oat, Wild plant response rating [13]
50: Plant response rating, Velvetleaf [10, 19] | Plant response rating, Velvetleaf [10, 21]
40: Cocklebur plant response rating [3, 18] | Crabgrass plant response rating [5, 20] | Plant response rating, Lambsquarters [7, 21] | Morningglory plant response rating [8, 18] | Plant response rating, Morningglory [8, 21] | Plant response rating, Pigweed [9, 21] | Plant response rating, Blackgrass [12]
0: Surinam Grass plant response rating [1, 18] | Plant response rating, Surinam Grass [1, 21] | Surinam Grass plant response rating [1, 20] | Plant response rating, Barnyardgrass [2, 21] | Corn plant response rating [4, 18] | Plant response rating, Corn [4, 21] | Corn plant response rating [4, 20] | Plant response rating, Crabgrass [5, 21] | Plant response rating, Foxtail, Giant [6, 21] | Foxtail, Giant plant response rating [6, 20] | Plant response rating, Wheat [11, 21] | Plant response rating, Barnyardgrass [14] | Plant response rating, Ducksalad [15] | Plant response rating, Rice [16] | Plant response rating, Sedge, Umbrella [17]
30: Plant response rating, Wheat [11, 19] | Blackgrass plant response rating [12] | Plant response rating, Oat, Wild [13]
10: Plant response rating, Surinam Grass [1, 19] | Barnyardgrass plant response rating [2, 20] | Plant response rating, Corn [4, 19] | Crabgrass plant response rating [5, 18] | Foxtail, Giant plant response rating [6, 18] | Velvetleaf plant response rating [10, 18] | Wheat plant response rating [11, 20]

COC(OC)c1nc(C2CC2)nc(N)c1F [Compound 46]
0: Surinam Grass plant response rating [1, 18] | Plant response rating, Surinam Grass [1, 21] | Barnyardgrass plant response rating [2, 18] | Plant response rating, Barnyardgrass [2, 21] | Barnyardgrass plant response rating [2, 20] | Cocklebur plant response rating [3, 18] | Plant response rating, Cocklebur [3, 19] | Plant response rating, Cocklebur [3, 21] | Corn plant response rating [4, 18] | Plant response rating, Corn [4, 19] | Plant response rating, Corn [4, 21] | Corn plant response rating [4, 20] | Plant response rating, Crabgrass [5, 21] | Foxtail, Giant plant response rating [6, 18] | Plant response rating, Foxtail, Giant [6, 21] | Velvetleaf plant response rating [10, 18] | Plant response rating, Velvetleaf [10, 19] | Plant response rating, Velvetleaf [10, 21] | Wheat plant response rating [11, 18] | Plant response rating, Wheat [11, 19] | Plant response rating, Wheat [11, 21] | Blackgrass plant response rating [12] | Oat, Wild plant response rating [13] | Plant response rating, Oat, Wild [13] | Plant response rating, Barnyardgrass [14] | Plant response rating, Rice [16]
40: Surinam Grass plant response rating [1, 20] | Cocklebur plant response rating [3, 20] | Crabgrass plant response rating [5, 20]
70: Pigweed plant response rating [9, 18]
30: Plant response rating, Barnyardgrass [2, 19] | Plant response rating, Crabgrass [5, 19] | Plant response rating, Lambsquarters [7, 19] | Plant response rating, Sedge, Umbrella [17]
90: Plant response rating, Morningglory [8, 19] | Morningglory plant response rating [8, 20] | Pigweed plant response rating [9, 20]
20: Velvetleaf plant response rating [10, 20] | Plant response rating, Wheat [11, 20]
50: Foxtail, Giant plant response rating [6, 20] | Plant response rating, Morningglory [8, 21]
80: Morningglory plant response rating [8, 18] | Plant response rating, Pigweed [9, 19] | Plant response rating, Pigweed [9, 21]
10: Plant response rating, Surinam Grass [1, 19] | Crabgrass plant response rating [5, 18] | Plant response rating, Foxtail, Giant [6, 19] | Lambsquarters plant response rating [7, 18] | Plant response rating, Lambsquarters [7, 21] | Plant response rating, Blackgrass [12]
60: Lambsquarters plant response rating [7, 20] | Plant response rating, Ducksalad [15]

From patent publication US8802597B2, “Herbicidal pyrimidines” (E I du Pont de Nemours and Company, priority 2003, dated 2014)
